Reference: patent US11285135B2 (AMGEN INC., priority 2016, dated 2022)

biological target: GDP-bound protein (aa 1-169), containing both G12C and C118A amino acid substitutions (Homo sapiens, UniProt P01116, C118A/G12C); test: Coupled Nucleotide Exchange Assay (SOS-mediated nucleotide exchange, AlphaScreen); format: biochemical; details: 2 hours compound pre-incubation
Method: Coupled Nucleotide Exchange Assay: Purified GDP-bound […] protein (aa 1-169), containing both G12C and C118A amino acid substitutions and an N-terminal His-tag, was pre-incubated with a compound dose-response titration for 2 hours in assay buffer (25 mM HEPES pH 7.4, 10 mM MgCl2, and 0.01% Triton X-100). Following compound pre-incubation, purified SOS protein (aa 564-1049) and GTP (Roche 10106399001) were added to the assay wells and incubated for an additional hour. […] The assay plates were then read on a PerkinElmer EnVision Multilabel Reader, using AlphaScreen® technology, and data were analyzed using a 4-parameter logistic model to calculate IC50 values.

Chain of GDP-bound protein (aa 1-169), containing both G12C and C118A amino acid substitutions (P01116 1-169 isoform P01116-2 G12C/C118A): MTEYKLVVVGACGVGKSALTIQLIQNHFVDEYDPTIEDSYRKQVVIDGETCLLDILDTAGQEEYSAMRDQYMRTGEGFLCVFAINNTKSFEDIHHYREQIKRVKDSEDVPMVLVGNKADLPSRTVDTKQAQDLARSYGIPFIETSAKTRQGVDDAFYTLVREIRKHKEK

Row | SMILES | Coupled exchange IC50 [µM]
1 | C=CC(=O)NC1CN(c2snc3c(F)c(Br)c(Cl)cc23)C1 [Example 4-4, N-(1-(6-bromo-5-chloro-7-fluoro-2,1-benzothiazol-3-yl)-3-azetidinyl)-2-propenamide] | >250
2 | C=CC(=O)N1CC2(C1)CN(c1snc3c(F)c(Br)c(Cl)cc13)C2 [Example 4-2, 1-(6-(6-bromo-5-chloro-7-fluoro-2,1-benzothiazol-3-yl)-2,6-diazaspiro[3.3]hept-2-yl)-2-propen-1-one] | >250
3 | C=CC(=O)NC1(C)CN(c2snc3c(F)c(-c4cc(O)cc5ccccc45)c(Cl)cc23)C1 [Example 5-2, N-(1-(5-chloro-7-fluoro-6-(3-hydroxy-1-naphthalenyl)-2,1-benzothiazol-3yl)-3-methyl-3-azetidinyl)-2-propenamide] | 14.2
4 | C=CC(=O)N1CCN(c2nnc(Cc3ccccc3)c3cc(Cl)c(Cl)cc23)CC1 [Example 34, 1-(4-Acryloyl-1-piperazinyl)-4-benzyl-6,7-dichlorophthalazine] | 34.2
5 | C=C(CCO)C(=O)N1CCN(c2snc3c(F)c(-c4cc(O)cc5ccccc45)c(Cl)cc23)CC1 [Example 20, 1-(4-(5-chloro-7-fluoro-6-(3-hydroxy-1-naphthalenyl)-2,1-benzothiazol-3-yl)-1-piperazinyl)-4-hydroxy-2-methylidene-1-butanone] | 78.8
6 | C=CC(=O)N1CCN(c2nnc(OC)c3cc(-c4c(O)cccc4F)c(Cl)cc23)CC1 (single isomer, unassigned) [Example 32, 2-(1-(4-Acryloyl-1-piperazinyl)-7-chloro-4-methoxy-6-phthalazinyl)-3-fluorophenol] | 28.6
7 | C=CC(=O)N1CCN(c2snc3nc(-c4c(C)ccc5[nH]ncc45)c(Cl)cc23)C(C)C1 (single isomer, unassigned) [Example 2-6-1, 1-((3S)-4-(5-chloro-6-(5-methyl-1H-indazol-4-yl)[1,2]thiazolo[3,4-b]pyridin-3-yl)-3-methyl-1-piperazinyl)-2-propen-1-one or 1-((3R)-4-(5-chloro-6-(5-methyl-1H-indazol-4-yl)[1,2]thiazolo[3,4-b]pyridin-3-yl)-3-methyl-1-piperazinyl)-2-propen-1-one] | 13.0
8 | COc1cc(-c2c(Cl)cc3c(N4CCN(C(=O)/C=C/CN(C)C)CC4)snc3c2F)c2ccccc2c1 [Example 17-1, (2E)-1-(4-(5-Chloro-7-fluoro-6-(3-methoxy-1-naphthalenyl)-2,1-benzothiazol-3-yl)-1-piperazinyl)-4-(dimethylamino)-2-buten-1-one] | 20.6
9 | C=CC(=O)N1CCN(c2snc3c(F)c(-c4cc(O)cc5ccccc45)c(Cl)cc23)CC1C(N)=O (racemic) [Example 1-12, 4-(5-chloro-7-fluoro-6-(3-hydroxy-1-naphthalenyl)-2,1-benzothiazol-3-yl)-1-(2-propenoyl)-2-piperazinecarboxamide] | 11.8
10 | C=CC(=O)N1CCN(c2snc3c(F)c(-c4cc(OC)cc5cnn(C)c45)c(Cl)cc23)CC1 [Example 19-1, 1-(4-(5-chloro-7-fluoro-6-(5-methoxy-1-methyl-1H-indazol-7-yl)-2,1-benzothiazol-3-yl)-1-piperazinyl)-2-propen-1-one] | 15.2
11 | C=CC(=O)N1CCN(c2nnc(OC)c3cc(Cl)c(-c4c(O)cccc4F)cc23)CC1 (single isomer, unassigned) [Example 33, 2-(4-(4-acryloyl-1-piperazinyl)-7-chloro-1-methoxy-6-phthalazinyl)-3-fluorophenol] | 103
12 | C=CC(=O)N1CCN(c2nnc(Cc3ccccc3)c3cc(Cl)c(-c4c(O)cccc4F)cc23)CC1 [Example 36, 2-(4-(4-acryloyl-1-piperazinyl)-1-benzyl-7-chloro-6-phthalazinyl)-3-fluorophenol] | 39.8
13 | C=CC(=O)N1CCN(c2snc3c(F)c(-c4cc(O)c(Cl)cc4Cl)c(Cl)cc23)CC1 [Example 3-17, 1-(4-(5-chloro-6-(2,4-dichloro-5-hydroxyphenyl)-7-fluoro-2,1-benzothiazol-3-yl)-1-piperazinyl)-2-propen-1-one] | 5.48
14 | C=CC(=O)N1CCN(c2nnc(C(C)c3ccccc3)c3cc(-c4c(O)cccc4F)c(Cl)cc23)CC1 (racemic) [Example 28, 1-(4-(7-chloro-6-(2-fluoro-6-hydroxyphenyl)-4-((1R)-1-phenylethyl)-1-phthalazinyl)-1-piperazinyl)-2-propen-1-one and 1-(4-(7-chloro-6-(2-fluoro-6-hydroxyphenyl)-4-((1S)-1-phenylethyl)-1-phthalazinyl)-1-piperazinyl)-2-propen-1-one] | 8.17
15 | C=CC(=O)N[C@@H]1CCCN(c2snc3c(F)c(-c4cc(O)cc5ccccc45)c(Cl)cc23)C1 [Example 1-23, N-((3R)-1-(5-chloro-7-fluoro-6-(3-hydroxy-1-naphthalenyl)-2,1-benzothiazol-3-yl)-3-piperidinyl)-2-propenamide] | >250
16 | C=CC(=O)N[C@@H]1CN(c2snc3c(F)c(-c4cc(O)cc5ccccc45)c(Cl)cc23)[C@@H]1C (racemic) [Example 1-9, N-(1-(5-chloro-7-fluoro-6-(3-hydroxy-1-naphthalenyl)-2,1-benzothiazol-3-yl)-2-methyl-3-azetidinyl)-2-propenamide] | 5.92
17 | C=CC(=O)N1CCN(c2snc3c(F)c(-c4cccc5[nH]c(=O)ccc45)c(Cl)cc23)CC1 [Example 3-4, 5-(5-chloro-7-fluoro-3-(4-(2-propenoyl)-1-piperazinyl)-2,1-benzothiazol-6-yl)-2(1H)-quinolinone] | >250
18 | C=CC(=O)N1CCN(c2snc3c(F)c(-c4cccc5ccncc45)c(Cl)cc23)CC1 [Example 3-3, 1-(4-(5-chloro-7-fluoro-6-(8-isoquinolinyl)-2,1-benzothiazol-3-yl)-1-piperazinyl)-2-propen-1-one] | 11.3
19 | C=CC(=O)N1CCN(c2snc3c(F)c(-c4cc(NC(C)=O)ccc4C)c(Cl)cc23)CC1 [Example 3-13, N-(3-(5-chloro-7-fluoro-3-(4-(2-propenoyl)-1-piperazinyl)-2,1-benzothiazol-6-yl)-4-methylphenyl)acetamide] | 6.49
20 | C=CC(=O)N1[C@@H]2CC[C@H]1CN(c1snc3c(F)c(-c4cc(O)cc5ccccc45)c(Cl)cc13)C2 [Example 1-17, 1-((1R,5S)-3-(5-chloro-7-fluoro-6-(3-hydroxy-1-naphthalenyl)-2,1-benzothiazol-3-yl)-3,8-diazabicyclo[3.2.1]octan-8-yl)-2-propen-1-one] | 63.5
21 | C=C(CO)C(=O)N1CCN(c2snc3c(F)c(-c4cc(O)cc5ccccc45)c(Cl)cc23)CC1 [Example 18-3, 1-(4-(5-chloro-7-fluoro-6-(3-hydroxy-1-naphthalenyl)-2,1-benzothiazol-3-yl)-1-piperazinyl)-2-(hydroxymethyl)-2-propen-1-one] | 24.6
22 | C=CC(=O)N1CCN(c2snc3c(F)c(-c4cccc5ccc(=O)[nH]c45)c(Cl)cc23)CC1 [Example 3-2, 8-(5-chloro-7-fluoro-3-(4-(2-propenoyl)-1-piperazinyl)-2,1-benzothiazol-6-yl)-2(1H)-quinolinone] | >250
